One experiment has as its target T1, human TRPA1 (Homo sapiens, UniProt O75762).
T1 construct: expressed in transfected cells; host or cells: CHO cells (G-418 selection)
The experiment can be described thus: 45Calcium uptake assay: inhibition of AITC induced cellular uptake of radioactive calcium, human TRPA1 expressing CHO cells. In kind it is cell-based. To be noted: numeric values, AITC 30 μM. In a few lines:
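CHO cells expressing TRPA1 were preincubated 10 min with compound (0.5% DMSO final), then given AITC (30 μM human, 10 μM rat) plus 5 μCi/ml 45Ca2+ for 3 min. Lysate radioactivity measured by scintillation; IC50 obtained by nonlinear regression of % maximal response without antagonist.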

The target in the next experiment is T2, rat TRPA1 (Rattus norvegicus, UniProt Q6RI86).
T2 construct: expressed in transfected cells; host or cells: CHO cells (Zeocin selection)
Briefly: 45Calcium uptake assay: inhibition of AITC induced cellular uptake of radioactive calcium, rat TRPA1 expressing CHO cells. Format: cell-based. To be noted: AITC 10 μM; for IC50: class symbols; for inhibition at 10 µM: 10.0 μM compound, read-out: rat TRPA1 Percentage inhibition at 10.0 μM; for inhibition at 1 µM: read-out: rat TRPA1 Percentage inhibition. In short, it runs like this: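 CHO cells expressing rat or human TRPA1 were pre-treated with compound for 10 min, then given AITC (30 μM human, 10 μM rat) plus 5 μCi/ml 45Ca2+ for 3 min; final DMSO 0.5%. Lysate radioactivity was counted by scintillation. IC50 came from nonlinear regression of concentration-response curves as % of maximal response.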

T1 sequence (O75762 whole entry): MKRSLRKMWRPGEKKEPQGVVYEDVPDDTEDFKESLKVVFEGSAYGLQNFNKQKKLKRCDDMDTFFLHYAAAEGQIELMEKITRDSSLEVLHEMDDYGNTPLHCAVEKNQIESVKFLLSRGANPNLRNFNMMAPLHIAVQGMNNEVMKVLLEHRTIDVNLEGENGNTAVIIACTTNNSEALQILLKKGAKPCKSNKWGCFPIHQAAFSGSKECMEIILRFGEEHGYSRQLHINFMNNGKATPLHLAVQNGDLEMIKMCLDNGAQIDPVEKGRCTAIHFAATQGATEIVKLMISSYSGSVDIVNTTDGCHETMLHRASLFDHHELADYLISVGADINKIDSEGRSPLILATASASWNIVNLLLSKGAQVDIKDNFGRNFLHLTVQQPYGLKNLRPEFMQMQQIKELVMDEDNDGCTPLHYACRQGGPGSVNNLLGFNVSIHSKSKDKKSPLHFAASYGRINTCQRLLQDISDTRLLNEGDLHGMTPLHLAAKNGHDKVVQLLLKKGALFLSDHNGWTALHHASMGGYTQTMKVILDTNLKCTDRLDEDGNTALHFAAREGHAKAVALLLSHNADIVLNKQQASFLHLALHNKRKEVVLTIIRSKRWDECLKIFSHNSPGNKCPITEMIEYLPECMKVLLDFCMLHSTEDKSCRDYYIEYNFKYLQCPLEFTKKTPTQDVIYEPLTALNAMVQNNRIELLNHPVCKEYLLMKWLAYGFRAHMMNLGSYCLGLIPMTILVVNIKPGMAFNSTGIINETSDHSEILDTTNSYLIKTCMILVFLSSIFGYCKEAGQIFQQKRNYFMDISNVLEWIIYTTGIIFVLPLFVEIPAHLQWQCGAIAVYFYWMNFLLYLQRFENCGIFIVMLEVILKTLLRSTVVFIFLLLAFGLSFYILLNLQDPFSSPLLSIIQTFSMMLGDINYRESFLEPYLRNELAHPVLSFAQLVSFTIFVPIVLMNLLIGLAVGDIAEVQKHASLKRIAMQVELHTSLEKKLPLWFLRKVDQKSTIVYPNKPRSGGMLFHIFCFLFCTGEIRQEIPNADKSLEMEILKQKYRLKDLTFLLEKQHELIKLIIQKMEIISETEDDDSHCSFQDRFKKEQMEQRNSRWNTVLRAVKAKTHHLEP
T2 sequence (Q6RI86 whole entry): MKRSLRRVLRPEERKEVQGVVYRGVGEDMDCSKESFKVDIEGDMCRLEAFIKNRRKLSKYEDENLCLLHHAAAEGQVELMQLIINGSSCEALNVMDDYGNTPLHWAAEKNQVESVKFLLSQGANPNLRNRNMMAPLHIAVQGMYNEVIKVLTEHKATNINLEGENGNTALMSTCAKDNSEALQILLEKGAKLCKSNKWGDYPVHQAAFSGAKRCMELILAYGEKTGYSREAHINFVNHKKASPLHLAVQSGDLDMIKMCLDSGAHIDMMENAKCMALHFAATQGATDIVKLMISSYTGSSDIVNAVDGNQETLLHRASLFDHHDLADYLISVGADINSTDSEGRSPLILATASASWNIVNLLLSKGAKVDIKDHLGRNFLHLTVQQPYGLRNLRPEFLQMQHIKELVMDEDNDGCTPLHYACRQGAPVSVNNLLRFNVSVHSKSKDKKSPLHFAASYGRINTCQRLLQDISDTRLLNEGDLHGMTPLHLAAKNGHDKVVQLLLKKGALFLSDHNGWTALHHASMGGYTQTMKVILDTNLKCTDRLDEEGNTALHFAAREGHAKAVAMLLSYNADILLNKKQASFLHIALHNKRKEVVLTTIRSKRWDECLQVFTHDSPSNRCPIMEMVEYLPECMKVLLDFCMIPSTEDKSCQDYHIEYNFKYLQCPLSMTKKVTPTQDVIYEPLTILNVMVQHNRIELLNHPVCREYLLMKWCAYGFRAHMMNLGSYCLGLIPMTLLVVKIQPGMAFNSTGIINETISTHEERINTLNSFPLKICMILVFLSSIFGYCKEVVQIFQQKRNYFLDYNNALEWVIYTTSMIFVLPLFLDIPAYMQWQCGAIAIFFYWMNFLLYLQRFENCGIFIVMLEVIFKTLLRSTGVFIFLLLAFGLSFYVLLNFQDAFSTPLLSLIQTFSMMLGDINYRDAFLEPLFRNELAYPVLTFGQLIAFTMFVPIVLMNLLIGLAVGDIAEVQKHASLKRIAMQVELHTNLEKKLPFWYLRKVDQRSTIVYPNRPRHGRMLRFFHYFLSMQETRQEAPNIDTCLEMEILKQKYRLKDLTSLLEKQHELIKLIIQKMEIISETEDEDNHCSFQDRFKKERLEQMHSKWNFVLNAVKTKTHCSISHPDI

In the case of `Cc1oc2c(c1CC(=O)Nc1nc(-c3cc(F)c(F)c(F)c3)cs1)c(=O)n(C)c(=O)n2C` [Example 76, N1-[4-(3,4,5-Trifluorophenyl)-1,3-thiazol-2-yl]-2-(1,3,6-trimethyl-2,4-dioxo-1,2,3,4-tetrahydrofuro[2,3-d]pyrimidin-5-yl)acetamide], the IC50 (in general, the point on the concentration scale where inhibition reaches its midpoint) was 7.65 nM at human TRPA1 and 50 to 100 nM at rat TRPA1.

As for `Cc1oc2c(c1CC(=O)Nc1nc(-c3ccc(F)c(F)c3F)cs1)c(=O)n(C)c(=O)n2C` [Example 77, N1-[4-(2,3,4-Trifluorophenyl)-1,3-thiazol-2-yl]-2-(1,3,6-trimethyl-2,4-dioxo-1,2,3,4-tetrahydrofuro[2,3-d]pyrimidin-5-yl)acetamide], the IC50 on human TRPA1 came out at 19.2 nM. For the same compound, at rat TRPA1, the inhibition (usually how much of the control response was suppressed) at 10 µM turned out to be 98.5% and the inhibition at 1 µM came to 99.2%.

Consider `Cc1oc2c(c1CC(=O)Nc1nc(-c3ccc(F)c(Cl)c3F)cs1)c(=O)n(C)c(=O)n2C` [Example 78, N1-[4-(3-Chloro-2,4-difluorophenyl)-1,3-thiazol-2-yl]-2-(1,3,6-trimethyl-2,4-dioxo-1,2,3,4-tetrahydrofuro[2,3-d]pyrimidin-5-yl)acetamide], for which the IC50 at human TRPA1 was found to be 34.5 nM. At rat TRPA1, the inhibition at 10 µM came to 94.8% and the inhibition at 1 µM came to 94.5%.

On to `Cc1oc2c(c1CC(=O)Nc1nc(-c3cc(F)c(OCC(C)(C)C)c(F)c3)cs1)c(=O)n(C)c(=O)n2C` [Example 80], for which the concentration for half-maximal inhibition (IC50) at human TRPA1 is 3.63 nM; on rat TRPA1 it was less than 50 nM.

Take `Cc1oc2c(c1CC(=O)Nc1nc(-c3cc(F)c(OCC(C)C)c(F)c3)cs1)c(=O)n(C)c(=O)n2C` [Example 81, N1-[4-(3,5-Difluoro-4-isobutoxyphenyl)-1,3-thiazol-2-yl]-2-(1,3,6-trimethyl-2,4-dioxo-1,2,3,4-tetrahydrofuro[2,3-d]pyrimidin-5-yl)acetamide]: the IC50 on human TRPA1 came to 4.63 nM. Also, on rat TRPA1, the inhibition at 10 µM came out at 99.2%, the inhibition at 1 µM is 100% and the IC50 is 50 to 100 nM.

Consider `Cc1oc2c(c1CC(=O)Nc1nc(-c3cc(Cl)c(OCC(C)C)c(Cl)c3)cs1)c(=O)n(C)c(=O)n2C` [Example 82, N1-[4-(3,5-Dichloro-4-isobutoxyphenyl)-1,3-thiazol-2-yl]-2-(1,3,6-trimethyl-2,4-dioxo-1,2,3,4-tetrahydrofuro[2,3-d]pyrimidin-5-yl)acetamide], for which the half-inhibitory concentration (IC50) at human TRPA1 is 3.34 nM. Also, at rat TRPA1, the inhibition at 10 µM was found to be 100%, the inhibition at 1 µM was 100% and the half-maximal inhibitory concentration (IC50) is less than 50 nM.

As to `Cc1oc2c(c1CC(=O)Nc1nc(-c3ccc(F)c(C(F)(F)F)c3F)cs1)c(=O)n(C)c(=O)n2C` [Example 83, N1-{4-[2,4-Difluoro-3-(trifluoromethyl)phenyl]-1,3-thiazol-2-yl}-2-(1,3,6-trimethyl-2,4-dioxo-1,2,3,4-tetrahydrofuro[2,3-d]pyrimidin-5-yl)acetamide], the figures for the IC50 on human TRPA1 and on rat TRPA1 were 4.52 nM and less than 50 nM, respectively.

For the compound `Cc1oc2c(c1CC(=O)Nc1nc(-c3cc(F)c(C(F)(F)F)c(F)c3)cs1)c(=O)n(C)c(=O)n2C` [Example 84, N1-{4-[3,5-Difluoro-4-(trifluoromethyl)phenyl]-1,3-thiazol-2-yl}-2-(1,3,6-trimethyl-2,4-dioxo-1,2,3,4-tetrahydrofuro[2,3-d]pyrimidin-5-yl)acetamide], the 50% inhibitory concentration (IC50) was 4.16 nM on human TRPA1 and less than 50 nM at rat TRPA1.

As to `Cc1oc2c(c1CC(=O)Nc1nc(-c3cc(F)c(OC(F)F)c(F)c3)cs1)c(=O)n(C)c(=O)n2C` [Example 85, N1-{4-[3,5-Difluoro-4-(difluoromethoxy)phenyl]-1,3-thiazol-2-yl}-2-(1,3,6-trimethyl-2,4-dioxo-1,2,3,4-tetrahydrofuro[2,3-d]pyrimidin-5-yl)acetamide], the IC50 on human TRPA1 is 6.57 nM. At rat TRPA1, the inhibition at 10 µM turned out to be 100% and the inhibition at 1 µM worked out at 100%.

In the case of `Cc1oc2c(c1CC(=O)Nc1nc(-c3cc(Cl)c(OC(F)F)c(Cl)c3)cs1)c(=O)n(C)c(=O)n2C` [Example 86, N1-{4-[3,5-Dichloro-4-(difluoromethoxy)phenyl]-1,3-thiazol-2-yl}-2-(1,3,6-trimethyl-2,4-dioxo-1,2,3,4-tetrahydrofuro[2,3-d]pyrimidin-5-yl)acetamide], at human TRPA1, the half-maximal inhibitory concentration (IC50) was found to be 4.11 nM. Also, at rat TRPA1, the inhibition at 10 µM was 95.4%, the inhibition at 1 µM was found to be 99.1% and the IC50 is less than 50 nM.

Take `Cc1oc2c(c1CC(=O)Nc1nc(-c3cc(F)c(OCC(F)(F)F)c(F)c3)cs1)c(=O)n(C)c(=O)n2C` [Example 87, N1-{4-[3,5-Difluoro-4-(2,2,2-trifluoroethoxy)phenyl]-1,3-thiazol-2-yl}-2-(1,3,6-trimethyl-2,4-dioxo-1,2,3,4-tetrahydrofuro[2,3-d]pyrimidin-5-yl)acetamide]: the IC50 on human TRPA1 is 1.68 nM; at rat TRPA1, less than 50 nM.

In the case of `Cc1oc2c(c1CC(=O)Nc1nc(-c3cc(Cl)c(OCC(F)(F)F)c(Cl)c3)cs1)c(=O)n(C)c(=O)n2C` [Example 88, N1-{4-[3,5-Dichloro-4-(2,2,2-trifluoroethoxy)phenyl]-1,3-thiazol-2-yl}-2-(1,3,6-trimethyl-2,4-dioxo-1,2,3,4-tetrahydrofuro[2,3-d]pyrimidin-5-yl)acetamide], on human TRPA1, the half-inhibitory concentration (IC50) amounted to 1.77 nM. For the same compound, at rat TRPA1, the inhibition at 10 µM came out at 100% and the inhibition at 1 µM was 98.3%.

In the case of `Cc1oc2c(c1CC(=O)Nc1nc(-c3cc(F)c(OCC4CC4)c(F)c3)cs1)c(=O)n(C)c(=O)n2C` [Example 89, N1-{4-[4-(Cyclopropylmethoxy)-3,5-difluorophenyl]-1,3-thiazol-2-yl]-2-(1,3,6-trimethyl-2,4-dioxo-1,2,3,4-tetrahydrofuro[2,3-d]pyrimidin-5-yl)acetamide], the IC50 was 9.72 nM at human TRPA1 and 50 to 100 nM at rat TRPA1. Besides, the inhibition at 10 µM at rat TRPA1 was 98.8%.

As for `Cc1oc2c(c1CC(=O)Nc1nc(-c3ccc(F)c(C(F)(F)F)c3)c(C)s1)c(=O)n(C)c(=O)n2C` [Example 90, N1-{4-[4-Fluoro-3-(trifluoromethyl)phenyl]-5-methyl-1,3-thiazol-2-yl}-2-(1,3,6-trimethyl-2,4-dioxo-1,2,3,4-tetrahydrofuro[2,3-d]pyrimidin-5-yl)acetamide], at human TRPA1, the IC50 worked out at 14.2 nM. Moreover, on rat TRPA1, the inhibition at 10 µM was 99.5% and the inhibition at 1 µM was found to be 98%.
